# Reference: ChEMBL document CHEMBL2440076, “New triarylpyrazoles as broad-spectrum anticancer agents: design, synthesis, and biological evaluation” (Eur J Med Chem, 2013)
# Experiments:
# Type in all cases: functional
# SF-539 = test: Growth inhibition of human SF539 cells assessed as cell growth at 10^-7 M after 48 hrs by sulforhodamine B assay; details: SF-539, 48 h, read-out: Activity
# OVCAR-3 [1] = test: Growth inhibition of human OVCAR3 cells assessed as cell growth at 10^-8 M after 48 hrs by sulforhodamine B assay; details: OVCAR-3, 48 h, read-out: Activity
# SK-MEL-28 = test: Growth inhibition of human SK-MEL-28 cells assessed as cell growth at 10^-7 M after 48 hrs by sulforhodamine B assay; details: SK-MEL-28, 48 h, read-out: Activity
# NCI-H23 [2] = test: Growth inhibition of human NCI-H23 cells assessed as cell growth at 10^-8 M after 48 hrs by sulforhodamine B assay; details: NCI-H23, 48 h, read-out: Activity
# OVCAR-5 = test: Growth inhibition of human OVCAR5 cells assessed as cell growth at 10^-6 M after 48 hrs by sulforhodamine B assay; details: OVCAR-5, 48 h, read-out: Activity
# NCI-H522 [3] = test: Growth inhibition of human NCI-H522 cells assessed as cell growth at 10^-4 M after 48 hrs by sulforhodamine B assay; details: NCI-H522, 48 h, read-out: Activity
# HT-29 = test: Growth inhibition of human HT-29 cells assessed as cell growth at 10^-6 M after 48 hrs by sulforhodamine B assay; details: HT-29, 48 h, read-out: Activity
# NCI-H23 [4] = test: Growth inhibition of human NCI-H23 cells assessed as cell growth at 10^-7 M after 48 hrs by sulforhodamine B assay; details: NCI-H23, 48 h, read-out: Activity
# K562 = test: Growth inhibition of human K562 cells assessed as cell growth at 10^-7 M after 48 hrs by sulforhodamine B assay; details: K562, 48 h, read-out: Activity
# SK-OV-3 = test: Growth inhibition of human SKOV3 cells assessed as cell growth at 10^-5 M after 48 hrs by sulforhodamine B assay; details: SK-OV-3, 48 h, read-out: Activity
# U-251 [5] = test: Growth inhibition of human U251 cells assessed as cell growth at 10^-4 M after 48 hrs by sulforhodamine B assay; details: U-251, 48 h, read-out: Activity
# MDA-MB-231 [6] = test: Growth inhibition of human MDA-MB-231 cells assessed as cell growth at 10^-7 M after 48 hrs by sulforhodamine B assay; details: MDA-MB-231, 48 h, read-out: Activity
# SF-268 [7] = test: Growth inhibition of human SF268 cells assessed as cell growth at 10^-7 M after 48 hrs by sulforhodamine B assay; details: SF-268, 48 h, read-out: Activity
# SF-295 = test: Growth inhibition of human SF295 cells assessed as cell growth at 10^-7 M after 48 hrs by sulforhodamine B assay; details: SF-295, 48 h, read-out: Activity
# M14 = test: Growth inhibition of human M14 cells assessed as cell growth at 10^-5 M after 48 hrs by sulforhodamine B assay; details: M14, 48 h, read-out: Activity
# MDA-MB-231 [8] = test: Growth inhibition of human MDA-MB-231 cells assessed as cell growth at 10^-4 M after 48 hrs by sulforhodamine B assay; details: MDA-MB-231, 48 h, read-out: Activity
# SNB-19 [9] = test: Growth inhibition of human SNB19 cells assessed as cell growth at 10^-6 M after 48 hrs by sulforhodamine B assay; details: SNB-19, 48 h, read-out: Activity
# NCI-H322M = test: Growth inhibition of human NCI-H322M cells assessed as cell growth at 10^-6 M after 48 hrs by sulforhodamine B assay; details: read-out: Activity
# MOLT-4 [10] = test: Growth inhibition of human MOLT4 cells assessed as cell growth at 10^-6 M after 48 hrs by sulforhodamine B assay; details: MOLT-4, 48 h, read-out: Activity
# SF-268 [11] = test: Growth inhibition of human SF268 cells assessed as cell growth at 10^-4 M after 48 hrs by sulforhodamine B assay; details: SF-268, 48 h, read-out: Activity
# SK-MEL-5 = test: Growth inhibition of human SK-MEL-5 cells assessed as cell growth at 10^-6 M after 48 hrs by sulforhodamine B assay; details: SK-MEL-5, 48 h, read-out: Activity
# SN12C = test: Growth inhibition of human SN12C cells assessed as cell growth at 10^-5 M after 48 hrs by sulforhodamine B assay; details: read-out: Activity
# OVCAR-3 [12] = test: Growth inhibition of human OVCAR3 cells assessed as cell growth at 10^-7 M after 48 hrs by sulforhodamine B assay; details: OVCAR-3, 48 h, read-out: Activity
# A498 = test: Growth inhibition of human A498 cells assessed as cell growth at 10^-4 M after 48 hrs by sulforhodamine B assay; details: A498, 48 h, read-out: Activity
# Malme-3M = test: Growth inhibition of human MALME-3M cells assessed as cell growth at 10^-8 M after 48 hrs by sulforhodamine B assay; details: read-out: Activity
# A549 = test: Growth inhibition of human A549/ATCC cells assessed as cell growth at 10^-5 M after 48 hrs by sulforhodamine B assay; details: A549, 48 h, read-out: Activity
# MOLT-4 [13] = test: Growth inhibition of human MOLT4 cells assessed as cell growth at 10^-5 M after 48 hrs by sulforhodamine B assay; details: MOLT-4, 48 h, read-out: Activity
# U-251 [14] = test: Growth inhibition of human U251 cells assessed as cell growth at 10^-8 M after 48 hrs by sulforhodamine B assay; details: U-251, 48 h, read-out: Activity
# KM12 = test: Growth inhibition of human KM12 cells assessed as cell growth at 10^-5 M after 48 hrs by sulforhodamine B assay; details: KM12, 48 h, read-out: Activity
# RPMI-8226 = test: Growth inhibition of human RPMI8226 cells assessed as cell growth at 10^-4 M after 48 hrs by sulforhodamine B assay; details: RPMI-8226, 48 h, read-out: Activity
# OVCAR-4 = test: Growth inhibition of human OVCAR4 cells assessed as cell growth […] after 48 hrs by sulforhodamine B assay; details: OVCAR-4, 48 h, read-out: Activity
# SNB-19 [15] = test: Growth inhibition of human SNB19 cells assessed as cell growth at 10^-7 M after 48 hrs by sulforhodamine B assay; details: SNB-19, 48 h, read-out: Activity
# UO-31 = test: Growth inhibition of human UO31 cells assessed as cell growth at 10^-6 M after 48 hrs by sulforhodamine B assay; details: UO-31, 48 h, read-out: Activity
# DU-145 = test: Growth inhibition of human DU145 cells assessed as cell growth at 10^-4 M after 48 hrs by sulforhodamine B assay; details: DU-145, 48 h, read-out: Activity
# [16] = Growth inhibition of human Hs 578T cells assessed as cell growth at 10^-5 M after 48 hrs by sulforhodamine B assay; details: read-out: Activity
# NCI-H522 [17] = test: Growth inhibition of human NCI-H522 cells assessed as cell growth at 10^-6 M after 48 hrs by sulforhodamine B assay; details: NCI-H522, 48 h, read-out: Activity
# CAKI-1 = test: Growth inhibition of human CAKI-1 cells assessed as cell growth at 10^-7 M after 48 hrs by sulforhodamine B assay; details: CAKI-1, 48 h, read-out: Activity
# MOLT-4 [18] = test: Growth inhibition of human MOLT4 cells assessed as cell growth at 10^-8 M after 48 hrs by sulforhodamine B assay; details: MOLT-4, 48 h, read-out: Activity
Compound,growth at 0.1 µM (SF-539) [%],growth at 0.01 µM (OVCAR-3 [1]) [%],growth at 0.1 µM (SK-MEL-28) [%],growth at 0.01 µM (NCI-H23 [2]) [%],growth at 1 µM (OVCAR-5) [%],growth at 100 µM (NCI-H522 [3]) [%],growth at 1 µM (HT-29) [%],growth at 0.1 µM (NCI-H23 [4]) [%],growth at 0.1 µM (K562) [%],growth at 10 µM (SK-OV-3) [%],growth at 100 µM (U-251 [5]) [%],growth at 0.1 µM (MDA-MB-231 [6]) [%],growth at 0.1 µM (SF-268 [7]) [%],growth at 0.1 µM (SF-295) [%],growth at 10 µM (M14) [%],growth at 100 µM (MDA-MB-231 [8]) [%],growth at 1 µM (SNB-19 [9]) [%],growth at 1 µM (NCI-H322M) [%],growth at 1 µM (MOLT-4 [10]) [%],growth at 100 µM (SF-268 [11]) [%],further results
COc1cc(-c2nn(-c3cccc(NC(=O)c4ccccc4)c3)cc2-c2ccncc2)ccc1Cl,91,103,94,92,87,6,17,91,99,31,-18,101,94,90,5,-42,47,78,41,14,growth at 1 µM (SK-MEL-5): 10%; growth at 10 µM (SN12C): 34%; growth at 0.1 µM (OVCAR-3 [12]): 101%; growth at 100 µM (A498): -7%; growth at 0.01 µM (Malme-3M): 98%; growth at 10 µM (A549): 17%; growth at 10 µM (MOLT-4 [13]): 18%; growth at 0.01 µM (U-251 [14]): 96%; growth at 10 µM (KM12): 10%; growth at 100 µM (RPMI-8226): 21%; growth at 100 µM (OVCAR-4): 30%; growth at 0.1 µM (SNB-19 [15]): 97%; growth at 1 µM (UO-31): 42%; growth at 100 µM (DU-145): -5%; growth at 10 µM [16]: 18%; growth at 1 µM (NCI-H522 [17]): 15%; growth at 0.1 µM (CAKI-1): 99%; growth at 0.01 µM (MOLT-4 [18]): 102%
COc1cc(-c2nn(-c3cccc(NC(=O)c4ccc(N5CCOCC5)c(C(F)(F)F)c4)c3)cc2-c2ccncc2)ccc1Cl,68,110,68,97,57,-23,9,92,29,-11,-59,79,91,60,8,-30,38,36,38,10,growth at 1 µM (SK-MEL-5): -11%; growth at 10 µM (SN12C): 14%; growth at 0.1 µM (OVCAR-3 [12]): 76%; growth at 100 µM (A498): -24%; growth at 0.01 µM (Malme-3M): 103%; growth at 10 µM (A549): 7%; growth at 10 µM (MOLT-4 [13]): 9%; growth at 0.01 µM (U-251 [14]): 101%; growth at 10 µM (KM12): -6%; growth at 100 µM (RPMI-8226): 6%; growth at 100 µM (OVCAR-4): 18%; growth at 0.1 µM (SNB-19 [15]): 81%; growth at 1 µM (UO-31): 33%; growth at 100 µM (DU-145): 2%; growth at 10 µM [16]: 3%; growth at 1 µM (NCI-H522 [17]): 17%; growth at 0.1 µM (CAKI-1): 87%; growth at 0.01 µM (MOLT-4 [18]): 109%
